Results on 18 compounds are retold here after BindingDB's records for doi:10.7270/Q22V2DH9 (Nmmlsc, 2007).

SMILES strings stand for the structures.

For the test, the target named is T1, N-formyl peptide receptor 2 (Homo sapiens, UniProt P25090).
T1 sequence (P25090 whole entry): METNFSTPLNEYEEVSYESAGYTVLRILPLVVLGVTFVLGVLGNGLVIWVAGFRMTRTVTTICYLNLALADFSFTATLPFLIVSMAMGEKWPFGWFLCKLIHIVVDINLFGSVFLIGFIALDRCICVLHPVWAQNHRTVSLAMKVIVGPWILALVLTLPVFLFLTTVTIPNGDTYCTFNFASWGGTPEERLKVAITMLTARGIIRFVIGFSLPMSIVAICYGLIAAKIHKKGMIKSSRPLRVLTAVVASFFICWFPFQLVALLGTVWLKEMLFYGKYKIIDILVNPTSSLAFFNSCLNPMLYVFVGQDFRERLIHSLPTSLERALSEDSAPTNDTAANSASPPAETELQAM
Briefly: human FPR2 ligand displacement potency – cell-based, flow cytometry, Ki from IC50, selectivity assay for FPR1 ligand SAR project, dose response (AID 723). On the technique in general: In flow cytometry, cells or beads pass a laser one at a time.
As for `O=C1C(=O)N(CCCN2CCOCC2)C(c2cccnc2)C1C(=O)c1cc2ccccc2o1` (stereo not drawn) [3-(1-benzofuran-2-carbonyl)-4-hydroxy-1-(3-morpholin-4-ylpropyl)-2-pyridin-3-yl-2H-pyrrol-5-one], the concentration for half-maximal inhibition (IC50) (in general, the concentration that inhibits the measured activity by half) is greater than 66.7 µM. The figure for `Cc1cccc(C)c1NC(=O)C(NC(=O)Cc1cccs1)c1ccccc1` (stereo not drawn) [N-(2,6-dimethylphenyl)-2-[(1-oxo-2-thiophen-2-ylethyl)amino]-2-phenylacetamide] is greater than 66.7 µM; for `N#Cc1c(N=C(CC(=O)c2ccccc2)C(=O)O)sc2c1CCC2` [(Z)-2-[(3-cyano-5,6-dihydro-4H-cyclopenta[b]thiophen-2-yl)amino]-4-keto-4-phenyl-but-2-enoic acid] it is greater than 66.7 µM; for `COc1ccc(C2C(C(=O)c3ccco3)C(=O)C(=O)N2CCN2CCOCC2)c(OC)c1` (stereo not drawn) [5-(2,4-dimethoxyphenyl)-4-(furan-2-carbonyl)-3-hydroxy-1-(2-morpholinoethyl)-1H-pyrrol-2(5H)-one] it is greater than 66.7 µM. For `CCCC(=O)N(Cc1ccco1)S(=O)(=O)c1cccc2cccnc12` [N-(2-furanylmethyl)-N-(8-quinolinylsulfonyl)butanamide], the IC50 was greater than 66.7 µM. Compound `COCCCN1C(=O)C(=O)C(C(=O)c2ccccc2)C1c1ccc(C(C)C)cc1` (stereo not drawn) [(4E)-1-(3-methoxypropyl)-4-[oxidanyl(phenyl)methylidene]-5-(4-propan-2-ylphenyl)pyrrolidine-2,3-dione] had an IC50 greater than 66.7 µM. On to `COc1ccccc1-c1c(C(F)(F)F)oc2cc(OC(=O)c3ccco3)ccc2c1=O`, for which the IC50 is greater than 66.7 µM. In the case of `COc1ccc(C2C(C(=O)c3cc4ccccc4o3)C(=O)C(=O)N2CCN(C)C)cc1OC` (stereo not drawn) [3-(1-benzofuran-2-carbonyl)-2-(3,4-dimethoxyphenyl)-1-[2-(dimethylamino)ethyl]-4-hydroxy-2H-pyrrol-5-one], the IC50 is greater than 66.7 µM. In the case of `O=C1C(=O)N(CCc2ccccc2)C(c2ccc(Cl)cc2)C1C(=O)c1cccs1` (stereo not drawn) [2-(4-chlorophenyl)-4-hydroxy-1-(2-phenylethyl)-3-(thiophene-2-carbonyl)-2H-pyrrol-5-one] it was greater than 66.7 µM; in that of `COc1ccc(C2C(C(=O)c3cccs3)C(=O)C(=O)N2CCCn2ccnc2)cc1` (stereo not drawn) [1-(3-imidazol-1-ylpropyl)-2-(4-methoxyphenyl)-4-oxidanyl-3-thiophen-2-ylcarbonyl-2H-pyrrol-5-one], greater than 66.7 µM. `COc1ccc(C(=O)C2C(=O)C(=O)NC2c2ccc(OC)cc2OC)cc1` (stereo not drawn) [(4Z)-5-(2,4-dimethoxyphenyl)-4-[(4-methoxyphenyl)-oxidanyl-methylidene]pyrrolidine-2,3-dione] displayed a concentration for half-maximal inhibition (IC50) greater than 66.7 µM. In the case of `CCc1cc2c(=O)c(-c3nc4ccccc4n3C)c(C)oc2cc1OC(C)=O` [acetic acid [6-ethyl-2-methyl-3-(1-methyl-2-benzimidazolyl)-4-oxo-1-benzopyran-7-yl] ester] it was greater than 66.7 µM. `COc1ccc(C2C(C(=O)c3cccs3)C(=O)C(=O)N2CCN2CCOCC2)c(OC)c1` (stereo not drawn) [2-(2,4-dimethoxyphenyl)-1-(2-morpholin-4-ylethyl)-4-oxidanyl-3-thiophen-2-ylcarbonyl-2H-pyrrol-5-one]: the IC50 was greater than 66.7 µM. For the compound `O=C(Oc1ccc2c(=O)c(-c3ccccc3Cl)c(C(F)(F)F)oc2c1)c1cccs1`, the concentration for half-maximal inhibition (IC50) is greater than 66.7 µM.

The compound `CC(C)C(=O)N(Cc1ccco1)S(=O)(=O)c1cccc2cccnc12` [N-(2-furanylmethyl)-2-methyl-N-(8-quinolinylsulfonyl)propanamide] displayed a concentration for half-maximal inhibition (IC50) greater than 66.7 µM. In the case of `O=C1C(=O)N(CN2CCOCC2)C(c2ccc(Br)cc2)C1C(=O)c1ccccc1` (stereo not drawn) [(4E)-5-(4-bromophenyl)-1-(morpholin-4-ylmethyl)-4-[oxidanyl(phenyl)methylidene]pyrrolidine-2,3-dione] it was greater than 66.7 µM; in that of `COc1ccc(OC)c(C2C(C(=O)c3ccccc3)C(=O)C(=O)N2c2ccc(C)c(Cl)c2)c1` (stereo not drawn) [(4E)-1-(3-chloranyl-4-methyl-phenyl)-5-(2,5-dimethoxyphenyl)-4-[oxidanyl(phenyl)methylidene]pyrrolidine-2,3-dione], greater than 66.7 µM; in that of `COc1ccc(C(=O)C2C(=O)C(=O)N(CCc3c[nH]c4ccccc34)C2c2ccc(C(C)C)cc2)cc1` (stereo not drawn), greater than 66.7 µM.
